Experimental findings from patent US9227967B2, “Inhibitor compounds of semicarbazide-sensitive amine oxidases” (Proximagen Limited, priority 2010, dated 2016) are described below.

Structures can show the parent of a compound that is named as a salt.

For this experiment, the target named is T1, human SSAO (Homo sapiens, UniProt Q16853).
T1 construct: made in house
T1 sequence (Q16853 29-763 limits assumed): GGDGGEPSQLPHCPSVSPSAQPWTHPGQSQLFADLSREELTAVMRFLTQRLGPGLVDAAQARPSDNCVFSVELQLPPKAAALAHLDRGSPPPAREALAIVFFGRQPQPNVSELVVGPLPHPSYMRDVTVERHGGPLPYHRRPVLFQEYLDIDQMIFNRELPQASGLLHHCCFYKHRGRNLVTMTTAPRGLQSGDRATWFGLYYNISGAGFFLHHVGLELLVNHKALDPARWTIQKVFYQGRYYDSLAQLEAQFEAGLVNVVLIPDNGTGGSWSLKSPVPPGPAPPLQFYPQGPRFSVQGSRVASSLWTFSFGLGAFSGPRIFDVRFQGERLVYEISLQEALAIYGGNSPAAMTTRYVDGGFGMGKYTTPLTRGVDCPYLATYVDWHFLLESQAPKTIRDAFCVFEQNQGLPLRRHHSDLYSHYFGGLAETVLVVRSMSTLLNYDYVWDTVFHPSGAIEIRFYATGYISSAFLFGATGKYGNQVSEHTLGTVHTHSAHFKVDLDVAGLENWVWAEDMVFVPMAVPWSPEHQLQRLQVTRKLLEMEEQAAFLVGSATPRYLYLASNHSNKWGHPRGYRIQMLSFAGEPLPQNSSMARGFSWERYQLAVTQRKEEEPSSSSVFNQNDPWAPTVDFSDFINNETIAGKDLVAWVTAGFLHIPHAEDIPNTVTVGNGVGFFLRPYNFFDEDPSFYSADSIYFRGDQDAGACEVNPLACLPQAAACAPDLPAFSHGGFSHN
Description: SSAO enzyme inhibition assay (benzylamine substrate; HRP-coupled hydrogen peroxide detection or 14C-benzaldehyde detection). It counts as biochemical. The conditions noted are these: purified recombinantly expressed human SSAO, benzylamine as substrate, r.t.; read-out: SSAO inhibitory activity IC50. The procedure: All primary assays were performed at r.t. with purified recombinantly expressed human SSAO. Enzyme was prepared essentially as described in Öhman et al. (Protein Expression and Purification 46 (2006) 321-331). In addition, secondary- and selectivity assays were performed using SSAO prepared from various tissues or purified rat recombinant SSAO. The enzyme activity was assayed with benzylamine as substrate by measuring either benzaldehyde production, using ^14C-labeled substrate, or by utilizing the production of hydrogen peroxide in a horseradish peroxidise (HRP) coupled reaction. Briefly, test compounds were dissolved in dimethyl sulfoxide (DMSO) to a concentration of 10 mM. Dose-response measurements were assayed by either creating 1:10 serial dilutions in DMSO to produce a 7 point curve or by making 1:3 serial dilutions in DMSO to produce 11 point curves. The top concentrations were adjusted depending on the potency of the compounds and subsequent dilution in reaction buffer yielded a final DMSO concentration ≦2%.
In a horseradish peroxidise (HRP) coupled reaction, hydrogen peroxide oxidation of 10-acetyl-3,7-dihydroxyphenoxazine produced resorufin, which is a highly fluorescent compound (Zhout and Panchuk-Voloshina. Analytical Biochemistry 253 (1997) 169-174; Amplex® Red Hydrogen Peroxide/peroxidise Assay kit, Invitrogen A22188). Enzyme and compounds in 50 mM sodium phosphate, pH 7.4 were set to pre-incubate in flat-bottomed microtiter plates for approximately 15 minutes before initiating the reaction by addition of a mixture of HRP, benzylamine and Amplex reagent. Benzylamine concentration was fixed at a concentration corresponding to the Michaelis constant, determined using standard procedures. Fluorescence intensity was then measured at several time points during 1-2 hours, exciting at 544 nm n and reading the emission at 590 nm. For the human SSAO assay final concentrations of the reagents in the assay wells were: SSAO enzyme 1 μg/ml, benzylamine 100 μM, Amplex reagent 20 μM, HRP 0.1 U/mL and varying concentrations of test compound. The inhibition was measured as % decrease of the signal compared to a control without inhibitor (only diluted DMSO). The background signal from a sample containing no SSAO enzyme was subtracted from all data points. Data was fitted to a four parameter logistic model and IC50 values were calculated using the GraphPad Prism 4 or XLfit 4 programs.
SSAO activity was assayed using 14C-labeled benzylamine and analysed by measuring radioactive benzaldehyde. In a white 96-well optiplate (Packard), 20 μL of diluted test compound was pre-incubated at r.t. with 20 μL SSAO enzyme for approximately 15 minutes with continuous agitation. All dilutions were made with PBS. The reaction was initiated by adding 20 μL of the benzylamine substrate solution containing [7-14C] Benzylamine hydrochloride (CFA589, GE Healthcare). The plate was incubated for 1 hour as above after which the reaction was stopped by acidification (10 μL 1 M HCl). Then 90 μL Micro Scint-E solution (Perkin-Elmer) was added to each well and the plate was continuously mixed for 15 minutes. Phase separation occurred instantly and activity was read in a Topcount scintillation counter (Perkin-Elmer). In the final reaction well, human recombinant SSAO concentration was 10 μg/ml. In order to optimize sensitivity, the substrate concentration was decreased as compared to the HRP coupled assay in order to get a higher fraction of radioactive product. In the human SSAO assay, benzylamine concentration was 40 μM (0.2 μCi/mL). Data was analysed as above.
For `Cc1ccc(-n2nc(C3CCOC3)c3ccncc32)cc1` (stereo not drawn) [Compound 81, 1-(4-Methylphenyl)-3-(oxolan-3-yl)-1H-pyrazolo[3,4-c]pyridine], the IC50 is 100 to 500 nM.

As to `CC(C)(C)OC(=O)N1CCC(n2cc(-c3ccc(Cl)cc3)c3cnccc32)CC1` [Compound 2, tert-Butyl 4-[3-(4-chlorophenyl)-1H-pyrrolo[3,2-c]pyridin-1-yl]piperidine-1-carboxylate], the IC50 was in the range of 500 to 2500 nM.

As for `CC(C)(C)OC(=O)N1CCC(c2cn(-c3ccc(Cl)cc3)c3cnccc23)CC1` [Compound 9, tert-Butyl 4-[1-(4-chlorophenyl)-1H-pyrrolo[2,3-c]pyridin-3-yl]piperidine-1-carboxylate], the IC50 fell in the range of 500 to 2500 nM.

For `Oc1cc2c(C3CCOCC3)nn(-c3ccc(Cl)cc3)c2cn1` [Compound 97, 1-(4-Chlorophenyl)-3-(oxan-4-yl)-1H,5H,6H-pyrazolo[3,4-c]pyridin-5-one], the IC50 fell in the range of 100 to 500 nM.

Take `OCCN1CCC(c2cn(-c3ccc(Cl)cc3)c3cnccc23)CC1` [Compound 18, 2-{4-[1-(4-Chlorophenyl)-1H-pyrrolo[2,3-c]pyridin-3-yl]piperidin-1-yl}ethan-1-ol]: the concentration for half-maximal inhibition (IC50) was 100 to 500 nM.

As for `OCC1CCN(Cc2cn(-c3ccc(Cl)cc3)c3cnccc23)CC1` [Compound 28, (1-{[1-(4-Chlorophenyl)-1H-pyrrolo[2,3-c]pyridin-3-yl]methyl}piperidin-4-yl)methanol], the IC50 fell in the range of 100 to 500 nM.

Regarding `CC(C)(C)OC(=O)N1CCN(Cc2cn(-c3ccc(Cl)cc3)c3cnccc23)CC1` [Compound 25], the concentration for half-maximal inhibition (IC50) is 500 to 2500 nM.

`Clc1ccc(-c2cn(C3CCOC3)c3ccncc23)cc1` (stereo not drawn) [Compound 3, 3-(4-Chlorophenyl)-1-(oxolan-3-yl)-1H-pyrrolo[3,2-c]pyridine]: the IC50 fell in the range of 100 to 500 nM.

Turning to `Cc1ccc(-n2cc(C3CCOCC3)c3ccncc32)cc1` [Compound 102, 1-(4-Methylphenyl)-3-(oxan-4-yl)-1H-pyrrolo[2,3-c]pyridine], the IC50 was less than 100 nM.

`FC1(F)CCN(c2nn(-c3ccc(Cl)cc3)c3cnccc23)C1` [Compound 48, 1-[1-(4-Chlorophenyl)-1H-pyrazolo[3,4-c]pyridin-3-yl]-3,3-difluoropyrrolidine]: the IC50 is 100 to 500 nM.

In the case of `N#CCCN1CCC(c2cn(-c3ccc(Cl)cc3)c3cnccc23)CC1` [Compound 21, 3-{4-[1-(4-Chlorophenyl)-1H-pyrrolo[2,3-c]pyridine-3-yl]piperidin-1-yl}propanenitrile hydrochloride], the IC50 is 100 to 500 nM.

Consider `Cc1ccc(-n2nc(C3CCOCC3)c3ccncc32)cc1` [Compound 82, 1-(4-Methylphenyl)-3-(oxan-4-yl)-1H-pyrazolo[3,4-c]pyridine], for which the half-maximal inhibitory concentration (IC50) lay in the range of 100 to 500 nM.

With `CC1COCCN1c1nn(-c2ccc(Cl)cc2)c2cnccc12` (stereo not drawn) [Compound 60, 4-[1-(4-Chlorophenyl)-1H-pyrazolo[3,4-c]pyridin-3-yl]-3-methylmorpholine], the IC50 was less than 100 nM.

In the case of `CCOC(=O)N1CCC(c2nn(-c3ccc(Cl)cc3)c3cnccc23)CC1` [Compound 92, Ethyl 4-[1-(4-chlorophenyl)-1H-pyrazolo[3,4-c]pyridin-3-yl]piperidine-1-carboxylate], the 50% inhibitory concentration (IC50) lay in the range of 100 to 500 nM.

As to `N#Cc1ccc(-n2nc(C3CCOCC3)c3ccncc32)cc1` [Compound 41, 4-[3-(Oxan-4-yl)-1H-pyrazolo[3,4-c]pyridin-1-yl]benzonitrile], the IC50 fell in the range of 500 to 2500 nM.

For the molecule `OCCNCc1cn(-c2ccc(Cl)cc2)c2cnccc12` [Compound 31, 2-({[1-(4-Chlorophenyl)-1H-pyrrolo[2,3-c]pyridin-3-yl]methyl}amino)ethan-1-ol], the concentration for half-maximal inhibition (IC50) is 500 to 2500 nM.

As to `Clc1ccc(-n2nc(N3CCCCC3)c3ccncc32)cc1` [Compound 51, 1-[1-(4-Chlorophenyl)-1H-pyrazolo[3,4-c]pyridin-3-yl]piperidine], the 50% inhibitory concentration (IC50) fell in the range of 500 to 2500 nM.

Consider `Clc1ccc(-n2cc(CN3CCNCC3)c3ccncc32)cc1` [Compound 26, 1-{[1-(4-Chlorophenyl)-1H-pyrrolo[2,3-c]pyridin-3-yl]methyl}piperazine], for which the IC50 lay within 500 to 2500 nM.

Consider `Fc1cncc2c1c(C1CCOCC1)nn2-c1ccc(Cl)cc1` [Compound 88, 1-(4-Chlorophenyl)-4-fluoro-3-(oxan-4-yl)-1H-pyrazolo[3,4-c]pyridine], for which the concentration for half-maximal inhibition (IC50) was in the range of 500 to 2500 nM.

Take `CC1CN(c2nn(-c3ccc(Cl)cc3)c3cnccc23)CCO1` (stereo not drawn) [Compound 59, 4-[1-(4-Chlorophenyl)-1H-pyrazolo[3,4-c]pyridin-3-yl]-2-methylmorpholine]: the IC50 was less than 100 nM.

In the case of `Clc1ccc(-n2cc(C3CCOCC3)c3ccncc32)nc1` [Compound 103, 5-Chloro-2-[3-(oxan-4-yl)-1H-pyrrolo[2,3-c]pyridin-1-yl]pyridine], the concentration for half-maximal inhibition (IC50) was 100 to 500 nM.

With `NC1CCC(c2cn(-c3ccc(Cl)cc3)c3cnccc23)CC1` (mixture of isomers) [Compound 12, 4-[1-(4-Chlorophenyl)-1H-pyrrolo[2,3-c]pyridin-3-yl]cyclohexan-1-amine hydrochloride], the IC50 was less than 100 nM.

As to `Fc1ccc(-n2cc(C3CCOCC3)c3ccncc32)cc1` [Compound 100, 1-(4-Fluorophenyl)-3-(oxan-4-yl)-1H-pyrrolo[2,3-c]pyridine], the IC50 was 100 to 500 nM.

For `Cc1ccc(-n2nc(C3CCOCC3)c3ccncc32)c(C)c1` [Compound 45, 1-(2,4-Dimethylphenyl)-3-(oxan-4-yl)-1H-pyrazolo[3,4-c]pyridine], the IC50 fell in the range of 500 to 2500 nM.

With `Cc1ccc(-n2nc(C3CCOCC3)c3ccncc32)cn1` [Compound 47, 2-Methyl-5-[3-(oxan-4-yl)-1H-pyrazolo[3,4-c]pyridin-1-yl]pyridine], the IC50 was 500 to 2500 nM.

Turning to `Cc1ccc(-n2nc(N3CCOCC3C(=O)NCCN)c3ccncc32)cc1` (stereo not drawn) [Compound 79, N-(2-Aminoethyl)-4-[1-(4-methylphenyl)-1H-pyrazolo[3,4-c]pyridin-3-yl]morpholine-3-carboxamide dihydrochloride], the IC50 was in the range of 100 to 500 nM.

As for `Cc1ccc(-n2nc(C3CNCCO3)c3ccncc32)cc1` (stereo not drawn) [Compound 86, 2-[1-(4-Methylphenyl)-1H-pyrazolo[3,4-c]pyridin-3-yl]morpholine], the IC50 lay within 500 to 2500 nM.

`Cc1ccc(-n2nc(N3CCOCC3)c3ccncc32)cc1` [Compound 57, 2,2,2-Trifluoroacetic acid; 4-[1-(4-methylphenyl)-1H-pyrazolo[3,4-c]pyridin-3-yl]morpholine]: the IC50 was less than 100 nM.

Regarding `Cc1ccc(-n2nc(N3CCOCC3)c3ccncc32)c(F)c1` [Compound 58, 4-[1-(2-Fluoro-4-methylphenyl)-1H-pyrazolo[3,4-c]pyridin-3-yl]morpholine], the IC50 was less than 100 nM.

On to `OCCC1CCN(Cc2cn(-c3ccc(Cl)cc3)c3cnccc23)CC1` [Compound 27, 2-(1-{[1-(4-Chlorophenyl)-1H-pyrrolo[2,3-c]pyridin-3-yl]methyl}piperidin-4-yl)ethan-1-ol], for which the IC50 fell in the range of 500 to 2500 nM.
